The subject of data set [1] is Pseudomonas syringae pv. tomato. The data set is described as follows: Pseudomonas syringae pv. tomato in vitro cell test. It is filed as cell-based. The conditions noted are these: 20 ppm of active ingredient, 24 h incubation, read-out: efficacy (inhibition of bacteria growth). How it is done:
Culture medium: LB broth medium (Luria Broth Miller) Sigma
Inoculum: bacteria suspension
Compounds were solubilized in DMSO and the solution used to prepare the required range of concentrations. The final concentration of DMSO used in the assay was 1%.
(§1) Inoculum was prepared from a pre-culture of bacteria grown in liquid medium and diluted to the desired optical density (OD).
(§2) Compounds were evaluated for their ability to inhibit bacteria growth in liquid culture assay. The compounds were added in the desired concentrations to culture medium containing the bacteria suspension. After 24 h of incubation, the efficacy of compounds was determined by spectrometric measurement of bacteria growth. Inhibition was determined by comparing the absorbance values in wells containing the compounds with the absorbance in control wells without active ingredients.

Data set [2] relates to Xanthomonas campestris pv. campestris. The data set is described as follows: Xanthomonas campestris pv. campestris in vitro cell test. It is filed as cell-based. The conditions noted are these: 20 ppm of active ingredient, 24 h incubation, read-out: efficacy (inhibition of bacteria growth). How it is done:
• Solvent: DMSO • Culture medium: LB broth medium (Luria Broth Miller) Sigma • Inoculum: bacteria suspension
Compounds were solubilized in DMSO and the solution used to prepare the required range of concentrations. The final concentration of DMSO used in the assay was ≤1%.
as §1, §2

Data set [3] relates to Colletotrichum lindemuthianum. The data set is described as follows: Colletotrichum lindemuthianum in vitro cell test. It is filed as cell-based. The following applies: 144 h, 20 ppm of active ingredient, 6 days incubation, read-out: efficacy (inhibition of fungal growth). How it is done:
(§3) • Solvent: DMSO • Culture medium: 14.6 g anhydrous D-glucose (VWR), 7.1 g Mycological Peptone (Oxoid), 1.4 g granulated Yeast Extract (Merck), QSP 1 liter • Inoculum: spores suspension
(§4) Fungicides were solubilized in DMSO and the solution used to prepare the required range of concentrations. The final concentration of DMSO used in the assay was ≤[…]1%.
A spore suspension of C. lindemuthianum was prepared and diluted to the desired spore density.
Fungicides were evaluated for their ability to inhibit spores germination and mycelium growth in liquid culture assay. The compounds were added in the desired concentration to the culture medium with spores. After 6 days incubation, fungi-toxicity of compounds was determined by spectrometric measurement of mycelium growth. Inhibition of fungal growth was determined by comparing the absorbance values in wells containing the fungicides with the absorbance in control wells without fungicides.

Data set [4] concerns salicylate responsive promoter sequence of the PR1 (pathogenesis-related protein I) gene (AT2G14610). The data set is described as follows: Induction of defense gene expression in Arabidopsis thaliana (PR1 promoter-GFP reporter plants). The format is in vivo. The conditions noted are these: Arabidopsis thaliana, 72 h, 3rd day after spraying, mock treated leaves set as 1.00, read-out: relative fluorescence value; for fold induction at 75 ppm: 75 ppm of compound. The gist of the method: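 Transgenic A. thaliana carrying GFP under the salicylate-responsive PR1 promoter, grown five days, then sprayed with compounds. Whole-plant fluorescence imaged and quantified on day 3 post-spray, expressed relative to mock-treated leaf background set at 1.00.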

For another data set, the system named is Peronospora parasitica. The data set is described as follows: In vivo preventive test on Peronospora parasitica (Crucifer downy mildew). The conditions noted are these: Hyaloperonospora parasitica, in Brassica oleracea, 120 h, cabbage, evaluated 5 days after inoculation, read-out: efficacy; for pest or weed control at 31 ppm: 31 ppm of active ingredient; for pest or weed control at 125 ppm: 125 ppm of active ingredient; for pest or weed control at 500 ppm: 500 ppm of active ingredient. The gist of the method: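 Young cabbage plants were sprayed with compound in acetone/DMSO/Tween diluted with water, then inoculated 72 h later with a Peronospora parasitica spore suspension. Plants were kept 5 days at 20 °C and 100% RH. Efficacy was scored with 0% equal to solvent-treated controls and 100% meaning no disease.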

Data set [5] in a line: LogP by HPLC on reversed phase columns (EEC directive 79/831 Annex V.A8). It is filed as physicochemical. The conditions noted are these: reversed phase HPLC columns. In outline: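 Reversed-phase HPLC per EEC directive 79/831 Annex V.A8. Calibrated with straight-chain alkan-2-ones (C3–C16) of known LogP, LogP from retention times by linear interpolation between successive alkanones. Lambda-max taken from UV spectra (200–400 nm) at chromatographic peak maxima.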

In another data set the test system is Alternaria alternata. The data set is described as follows: Alternaria alternata in vitro cell test. The format is cell-based. The following applies: 120 h, 20 ppm of active ingredient, 5 days incubation, read-out: efficacy (inhibition of fungal growth). Here is the method: as §3, §4
A spore suspension of A. alternata was prepared and diluted to the desired spore density.
Fungicides were evaluated for their ability to inhibit spore germination and mycelium growth in liquid culture assay. The compounds were added in the desired concentration to the culture medium with spores. After 5 days incubation, fungi-toxicity of compounds was determined by spectrometric measurement of mycelium growth. Inhibition of fungal growth was determined by comparing the absorbance values in wells containing the fungicides with the absorbance in control wells without fungicides.

Data set [6] concerns Colletotrichum lindemuthianum. The data set is described as follows: In vivo preventive test on Colletotrichum lindemuthianum (Antrachnose on bean). The following applies: 144 h, inoculation 72 h after spraying, evaluated 6 days after inoculation, read-out: efficacy; for pest or weed control at 500 ppm: 500 ppm of active ingredient. The gist of the method:
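Young bean plants sprayed preventively with compound in acetone/DMSO/Tween diluted in water, then spore-inoculated 72 h later. Incubation 24 h at 20° C./100% RH, then 5 days at 20° C./90% RH; scored 6 days post-inoculation as % efficacy (0% = solvent-treated control, 100% = no disease).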

Data set [7] concerns Xanthomonas campestris pv. campestris. The data set is described as follows: In vivo preventive test on Xanthomonas campestris pv. campestris (black rot on cabbage). The following applies: evaluated 8 or 10 days after inoculation, read-out: efficacy; for pest or weed control at 125 ppm: 125 ppm of active ingredient; for pest or weed control at 31 ppm: 31 ppm of active ingredient. The gist of the method:
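Young cabbage plants sprayed with compound in acetone/DMSO/Tween diluted in water; solvent-only controls. Leaves sprayed with bacterial suspension 72 h later, then held 8 or 10 days at 27° C and 95% relative humidity. Efficacy scored 8 or 10 days post-inoculation, 0% matching controls, 100% meaning no disease.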

The subject of the next data set is Uromyces appendiculatus. The data set is described as follows: In vivo preventive test on Uromyces appendiculatus (bean rust). The conditions noted are these: 240 h, evaluated 10 days after inoculation, read-out: efficacy; for pest or weed control at 500 ppm: 500 ppm of active ingredient; for pest or weed control at 125 ppm: 125 ppm of active ingredient. In outline:
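Young bean plants sprayed with compound in acetone/DMSO/Tween diluted in water, inoculated 72 h later with U. appendiculatus spore suspension. Held 24 h at 20 °C, 100% RH, then 9 days at 20 °C, 70-80% RH. Efficacy scored 10 days post-inoculation versus solvent-treated controls (0% = control, 100% = no disease).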

Data set [8] concerns Pseudomonas syringae pv. tomato. The data set is described as follows: In vivo preventive test on Pseudomonas syringae pv. tomato (bacterial speck on tomato). The conditions noted are these: 31 ppm of active ingredient, evaluated 5 or 6 days after inoculation, read-out: efficacy. The gist of the method: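 Young tomato plants sprayed with compound in acetone/DMSO/Tween diluted in water; solvent-only controls. Inoculated 72 h later by spraying leaves with bacterial suspension; 4 days saturated atmosphere then 1–2 days at 70–80% RH, 22 °C day/20 °C night. Efficacy scored 5–6 days post-inoculation, 0% = control, 100% = no disease.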

Where [9] appears, read: method [a]: LC-UV, in an acidic range, with 0.1% formic acid in water and acetonitrile as eluent (linear gradient from 10% to 95% acetonitrile).
[10] abbreviates: method [a]: LC-UV, acidic range, 0.1% formic acid in water and acetonitrile as eluent (linear gradient 10% to 95% acetonitrile).

Molecules are shown by their SMILES. A value given as a limit tells only on which side of the number the result lay.

By inhibition is commonly meant the drop in the measured response relative to a control, in per cent. For orientation: chromatographic logP means a lipophilicity value derived from retention on a column. High values mean higher lipophilicity, low ones lower lipophilicity. Take `CCSC(=O)C1(NC(=O)c2sc(Cl)c(Cl)c2Cl)CC1` [I.011, S-ethyl 1-{[(3,4,5-trichloro-2-thienyl)carbonyl]amino}cyclopropanecarbothioate]: the inhibition at 20 ppm (in data set [1]; in [2]; in data set [3]; in the data set on Alternaria alternata) was at most 30% in each case. The fold induction at 75 ppm in data set [4] was over 2. The fold induction at 300 ppm in data set [4] was over 2. In addition, in the data set with Peronospora parasitica, the pest or weed control at 31 ppm fell in the range of 90 to 100%. For the same molecule, in the data set with Peronospora parasitica, the pest or weed control at 125 ppm was in the range of 90 to 100%. Moreover, the pest or weed control at 500 ppm in the data set on Peronospora parasitica lay in the range of 90 to 100%. The chromatographic logP came to 4.01 in data set [5] (given in the preparation examples, method not marked) and 4.01 in data set [5] (setting [9]).
Consider `CCOC(=O)C(NC(=O)c1sc(Cl)c(Cl)c1Cl)c1ccccc1` (stereo not drawn) [I.064], for which the results for the pest or weed control at 500 ppm (in [6]; in the data set with Uromyces appendiculatus; with Peronospora parasitica) were 80 to 89%, 90 to 100% and 90 to 100%, respectively. The pest or weed control at 125 ppm in data set [7] is 70 to 79%; in the data set with Peronospora parasitica, 90 to 100%. Also, the inhibition at 20 ppm (in data set [1]; in data set [2]; in [3]; in the data set with Alternaria alternata) was at most 30% each time. In addition, in [4], the fold induction at 300 ppm is over 2. The pest or weed control at 31 ppm with Peronospora parasitica is 80 to 89%. Further, the chromatographic logP in data set [5] (setting [9]) came to 4.89.
For the molecule `CCOC(=O)C(CO)NC(=O)c1sc(Cl)c(Cl)c1Cl` (stereo not drawn) [I.078], the pest or weed control at 500 ppm (in data set [6]; in the data set on Uromyces appendiculatus; with Peronospora parasitica) was 90 to 100% each time. Besides, the inhibition at 20 ppm (in data set [1]; in data set [2]; with Alternaria alternata) was at most 30% in each case. The pest or weed control at 125 ppm in the data set with Uromyces appendiculatus and in the data set with Peronospora parasitica was 90 to 100% throughout. Moreover, the fold induction at 75 ppm in [4] was over 2. Moreover, in data set [4], the fold induction at 300 ppm was over 2. Besides, in the data set on Peronospora parasitica, the pest or weed control at 31 ppm lay within 90 to 100%. For the same molecule, the chromatographic logP in [5] (setting [9]) is 2.75.
Consider `COC(=O)[C@H](CC(=O)OC(C)(C)C)NC(=O)c1sc(Cl)c(Cl)c1Cl` [I.136], for which the pest or weed control at 31 ppm in data set [7] was 80 to 89%; in the data set with Peronospora parasitica, 90 to 100%. The pest or weed control at 125 ppm in data set [7] lay in the range of 70 to 79%; in the data set on Peronospora parasitica, 90 to 100%. Further, the inhibition at 20 ppm (in [1]; in [2]; in the data set with Alternaria alternata) was at most 30% in each case. The fold induction at 75 ppm in [4] was over 2. For the same molecule, the fold induction at 300 ppm in data set [4] is over 2. Besides, in [5] (setting [10]), the chromatographic logP came to 4.54.
Consider `CCOC(=O)CC[C@H](NC(=O)c1sc(Cl)c(Cl)c1Cl)C(=O)OCC` [I.137], for which the results for the pest or weed control at 31 ppm (in data set [6] (31 ppm of active ingredient); in data set [7]; with Peronospora parasitica) were 80 to 89%, 80 to 89% and 90 to 100%, respectively. Also, the inhibition at 20 ppm (in [1]; in data set [2]; in data set [3]; in the data set on Alternaria alternata) was at most 30% in each case. Also, the pest or weed control at 125 ppm in the data set with Uromyces appendiculatus and with Peronospora parasitica was 90 to 100% in each case. In addition, the fold induction at 75 ppm in data set [4] is over 2. Also, the fold induction at 300 ppm in [4] is over 2. The chromatographic logP in [5] (setting [10]) worked out at 4.21.
As to `CCOC(=O)C[C@H](NC(=O)c1sc(Cl)c(Cl)c1Cl)C(=O)OCC` [I.138], the pest or weed control at 31 ppm is 70 to 79% in [7], 90 to 100% in [8] and 90 to 100% with Peronospora parasitica. Also, the inhibition at 20 ppm (in data set [1]; in [2]; in the data set on Alternaria alternata) was at most 30% throughout. Further, the pest or weed control at 125 ppm in the data set on Uromyces appendiculatus and with Peronospora parasitica was 90 to 100% in each case. Also, the fold induction at 75 ppm in data set [4] is over 2. The fold induction at 300 ppm in data set [4] was over 2. In data set [5] (setting [10]), this molecule returned a chromatographic logP of 4.12.
For `CCOC(=O)C(CSC(C)=O)NC(=O)c1sc(Cl)c(Cl)c1Cl` (stereo not drawn) [I.145], the pest or weed control at 31 ppm in data set [7] is 90 to 100%; in data set [8], 80 to 89%; in the data set with Peronospora parasitica, 90 to 100%. For the same molecule, the pest or weed control at 125 ppm (in data set [7]; with Uromyces appendiculatus; in the data set on Peronospora parasitica) was 90 to 100% each time. The inhibition at 20 ppm (in [1]; in data set [2]; in the data set on Alternaria alternata) was at most 30% throughout. The fold induction at 75 ppm in data set [4] was over 2. In addition, the fold induction at 300 ppm in data set [4] was over 2. The molecule further yielded a chromatographic logP in data set [5] (setting [10]) of 3.41.
On to `CC(C)[C@H](NC(=O)c1sc(Cl)c(Cl)c1Cl)C(N)=O` [I.147], for which the inhibition at 20 ppm (in [1]; in data set [2]; in data set [3]; with Alternaria alternata) was at most 30% in each case. In the data set with Uromyces appendiculatus (8 ppm), the pest or weed control at 8 ppm was at least 90%. Moreover, the pest or weed control at 125 ppm in the data set on Uromyces appendiculatus and with Peronospora parasitica was 90 to 100% in each case. Moreover, the pest or weed control at 500 ppm in the data set on Uromyces appendiculatus and with Peronospora parasitica was 90 to 100% throughout. The same molecule had a chromatographic logP in data set [5] (setting [10]) of 2.67.

For the origin of these results see patent US20230055705A1, “SUBSTITUTED THIOPHENE CARBOXAMIDES AND DERIVATIVES THEREOF” (Bayer Aktiengesellschaft, priority 2019, published 2023).
